Experimental data reported in patent US12492188B2, “1H-benzo[D]imidazole derivatives as TLR9 inhibitors for the treatment of fibrosis” (BRISTOL-MYERS SQUIBB COMPANY, priority 2020, dated 2025).
Like-named read-outs stand apart in the source and are kept apart here.

Assays:
Type in all cases: cell-based
human TLR7 = target: T1, human TLR7 (Homo sapiens, UniProt Q9NYK1); assay: TLR7 inhibition reporter assay (HEK-Blue cells, secreted embryonic alkaline phosphatase reporter); conditions: HEK-Blue cells overexpressing human TLR7, stimulated with gardiquimod 7.5 μM; read-out: TLR 7 IC50
T1 construct: host or cells: HEK-Blue cells (HEK293-derived reporter line)
T1 sequence (Q9NYK1 27-1049): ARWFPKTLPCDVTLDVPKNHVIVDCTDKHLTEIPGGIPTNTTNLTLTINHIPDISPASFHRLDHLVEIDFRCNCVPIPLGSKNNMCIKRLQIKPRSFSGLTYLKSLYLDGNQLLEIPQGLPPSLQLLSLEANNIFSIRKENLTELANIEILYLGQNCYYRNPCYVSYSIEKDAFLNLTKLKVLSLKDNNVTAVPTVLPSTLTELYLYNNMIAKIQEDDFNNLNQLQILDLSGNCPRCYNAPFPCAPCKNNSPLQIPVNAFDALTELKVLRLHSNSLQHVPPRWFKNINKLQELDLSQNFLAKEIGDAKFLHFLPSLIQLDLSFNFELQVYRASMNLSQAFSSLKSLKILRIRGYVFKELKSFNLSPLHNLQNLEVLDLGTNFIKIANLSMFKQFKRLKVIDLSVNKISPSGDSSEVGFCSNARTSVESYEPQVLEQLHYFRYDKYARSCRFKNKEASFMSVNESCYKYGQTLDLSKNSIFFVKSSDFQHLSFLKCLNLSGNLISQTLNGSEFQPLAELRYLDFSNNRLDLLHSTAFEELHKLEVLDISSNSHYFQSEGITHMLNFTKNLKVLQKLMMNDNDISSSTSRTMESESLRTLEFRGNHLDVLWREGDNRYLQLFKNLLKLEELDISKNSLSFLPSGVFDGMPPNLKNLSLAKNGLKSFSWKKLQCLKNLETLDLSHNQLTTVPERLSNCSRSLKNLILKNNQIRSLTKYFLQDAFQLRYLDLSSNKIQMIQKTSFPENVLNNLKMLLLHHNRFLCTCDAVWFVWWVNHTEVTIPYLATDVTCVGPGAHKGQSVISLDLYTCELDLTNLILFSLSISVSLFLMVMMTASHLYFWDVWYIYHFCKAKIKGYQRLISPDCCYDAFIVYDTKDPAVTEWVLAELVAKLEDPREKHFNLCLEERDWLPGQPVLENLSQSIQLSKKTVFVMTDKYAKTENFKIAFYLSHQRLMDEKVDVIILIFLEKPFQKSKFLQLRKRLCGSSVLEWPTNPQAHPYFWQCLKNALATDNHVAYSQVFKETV
In short: (§1)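 Inhibitors are tested in dose response (0.05 nM–50 μM) on HEK-Blue reporter cells expressing human TLR7, TLR8 or TLR9. After 30 min at room temperature, each line is stimulated with its own agonist (gardiquimod 7.5 μM, R848 15.9 μM or ODN2006 5 nM, final) and SEAP is measured 22 h later.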

human TLR8 = target: T2, human TLR8 (Homo sapiens, UniProt Q9NR97); assay: TLR8 inhibition reporter assay (HEK-Blue cells, secreted embryonic alkaline phosphatase reporter); conditions: HEK-Blue cells overexpressing human TLR8, stimulated with R848 15.9 μM; read-out: TLR 8 IC50
T2 construct: host or cells: HEK-Blue cells (HEK293-derived reporter line)
T2 sequence (Q9NR97 27-1041): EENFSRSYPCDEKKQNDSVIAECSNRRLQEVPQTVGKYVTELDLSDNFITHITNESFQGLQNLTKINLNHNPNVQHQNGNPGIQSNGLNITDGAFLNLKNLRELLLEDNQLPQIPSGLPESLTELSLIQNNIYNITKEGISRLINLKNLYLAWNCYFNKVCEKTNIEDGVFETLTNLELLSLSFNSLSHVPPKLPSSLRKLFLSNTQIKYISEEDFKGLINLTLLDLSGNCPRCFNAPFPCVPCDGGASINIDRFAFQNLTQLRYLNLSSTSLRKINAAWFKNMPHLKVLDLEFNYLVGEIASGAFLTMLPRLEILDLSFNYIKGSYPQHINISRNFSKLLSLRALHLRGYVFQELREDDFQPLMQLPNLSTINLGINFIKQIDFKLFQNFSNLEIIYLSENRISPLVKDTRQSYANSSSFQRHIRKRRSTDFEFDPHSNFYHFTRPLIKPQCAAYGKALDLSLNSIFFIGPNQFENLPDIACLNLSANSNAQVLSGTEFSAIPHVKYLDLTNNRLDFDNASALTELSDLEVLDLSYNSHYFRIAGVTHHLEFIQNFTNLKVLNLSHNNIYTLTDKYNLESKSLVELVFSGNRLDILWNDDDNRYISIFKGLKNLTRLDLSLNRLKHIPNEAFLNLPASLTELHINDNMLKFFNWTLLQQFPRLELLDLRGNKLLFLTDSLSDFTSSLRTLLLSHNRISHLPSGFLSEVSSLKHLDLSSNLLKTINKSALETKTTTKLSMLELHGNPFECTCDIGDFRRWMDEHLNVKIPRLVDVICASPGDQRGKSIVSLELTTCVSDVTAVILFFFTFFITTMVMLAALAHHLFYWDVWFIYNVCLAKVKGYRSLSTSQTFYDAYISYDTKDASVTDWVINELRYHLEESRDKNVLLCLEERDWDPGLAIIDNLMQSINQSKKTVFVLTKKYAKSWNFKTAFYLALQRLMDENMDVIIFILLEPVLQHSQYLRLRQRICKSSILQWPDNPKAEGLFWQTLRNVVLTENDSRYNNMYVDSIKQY
In short: as §1

human TLR9 = target: T3, human TLR9 (Homo sapiens, UniProt Q9NR96); assay: TLR9 inhibition reporter assay (HEK-Blue cells, secreted embryonic alkaline phosphatase reporter)
T3 construct: host or cells: HEK-Blue cells (HEK293-derived reporter line)
T3 sequence (Q9NR96 26-1032): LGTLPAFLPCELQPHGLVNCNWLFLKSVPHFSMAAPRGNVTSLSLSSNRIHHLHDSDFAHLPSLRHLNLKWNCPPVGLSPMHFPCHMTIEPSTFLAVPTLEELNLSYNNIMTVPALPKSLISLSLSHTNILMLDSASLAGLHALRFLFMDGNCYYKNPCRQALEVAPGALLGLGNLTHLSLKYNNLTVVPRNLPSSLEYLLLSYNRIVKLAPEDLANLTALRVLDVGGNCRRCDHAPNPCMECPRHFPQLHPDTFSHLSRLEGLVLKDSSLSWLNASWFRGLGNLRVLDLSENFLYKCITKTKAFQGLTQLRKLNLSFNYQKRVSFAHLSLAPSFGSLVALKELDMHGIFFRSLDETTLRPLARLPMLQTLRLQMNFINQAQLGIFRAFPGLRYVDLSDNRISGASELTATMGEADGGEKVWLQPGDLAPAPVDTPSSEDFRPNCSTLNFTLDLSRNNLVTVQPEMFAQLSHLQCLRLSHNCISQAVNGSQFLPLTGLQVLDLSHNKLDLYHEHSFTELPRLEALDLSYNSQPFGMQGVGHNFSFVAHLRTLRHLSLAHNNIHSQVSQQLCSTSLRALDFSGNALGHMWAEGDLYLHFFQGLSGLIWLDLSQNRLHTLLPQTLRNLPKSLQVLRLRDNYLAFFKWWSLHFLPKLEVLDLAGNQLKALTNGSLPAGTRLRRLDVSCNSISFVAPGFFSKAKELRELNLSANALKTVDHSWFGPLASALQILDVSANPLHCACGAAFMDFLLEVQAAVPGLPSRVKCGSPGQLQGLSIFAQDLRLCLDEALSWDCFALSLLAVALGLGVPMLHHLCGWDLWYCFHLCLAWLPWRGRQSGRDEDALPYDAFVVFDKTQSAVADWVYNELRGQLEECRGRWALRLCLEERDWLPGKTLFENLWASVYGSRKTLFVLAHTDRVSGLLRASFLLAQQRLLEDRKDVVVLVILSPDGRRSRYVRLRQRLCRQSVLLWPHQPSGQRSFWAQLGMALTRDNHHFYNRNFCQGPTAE
In short: as §1

[1] = HEK-Blue cells overexpressing human TLR9, stimulated with ODN2006 5 nM, read-out: TLR 9 IC50

| SMILES | IC50 (human TLR7) [nM] | IC50 (human TLR8) [nM] | IC50 (human TLR9) [nM] | IC50 (human TLR9; [1]) [nM] |
| --- | --- | --- | --- | --- |
| Cn1c(-c2ccc(S(C)(=O)=O)cc2)nc2cc(F)c(C3CCN(C4CC5CCC(C4)N5CC4CC4)CC3)cc21 (centres unmarked) [Example 231, 6-(1-(8-(cyclopropylmethyl)-8-azabicyclo[3.2.1]octan-3-yl)piperidin-4-yl)-5-fluoro-1-methyl-2-(4-(methylsulfonyl)phenyl)-1H-benzo[d]imidazole] | > 50000 | > 50000 | 58 | 58 |
| Cn1c(-c2ccc(S(C)(=O)=O)cc2)nc2cc(F)c(C3CCN(C4CC5CCC(C4)N5C4CCOCC4)CC3)cc21 (centres unmarked) [Example 236, 5-fluoro-1-methyl-2-(4-(methylsulfonyl)phenyl)-6-(1-(8-(tetrahydro-2H-pyran-4-yl)-8-azabicyclo[3.2.1]octan-3-yl)piperidin-4-yl)-1H-benzo[d]imidazole] | > 50000 | > 50000 | 99 | 99 |
| Cn1c(-c2ccc(S(C)(=O)=O)cc2)nc2cc(F)c(C3CCN(C4CC5CCC(C4)N5C4CCOCC4)CC3)cc21 (centres unmarked) [Example 237, 5-fluoro-1-methyl-2-(4-(methylsulfonyl)phenyl)-6-(1-(8-(tetrahydro-2H-pyran-4-yl)-8-azabicyclo[3.2.1]octan-3-yl)piperidin-4-yl)-1H-benzo[d]imidazole] | > 50000 | > 50000 | 87 | 87 |
| Cn1c(-c2ccc(S(C)(=O)=O)cc2)nc2cc(C3CCN(C4CCN(C5CC5)CC4)CC3)c(F)cc21 [Example 241, 5-(1′-cyclopropyl-[1,4′-bipiperidin]-4-yl)-6-fluoro-1-methyl-2-(4-(methylsulfonyl)phenyl)-1H-benzo[d]imidazole] | > 50000 | > 50000 | 1700 | 1710 |
| Cn1c(-c2ccc(S(C)(=O)=O)cc2)nc2cc(C3CCN(C4CCN(C5CCC5)CC4)CC3)c(F)cc21 [Example 243, 5-(1′-cyclobutyl-[1,4′-bipiperidin]-4-yl)-6-fluoro-1-methyl-2-(4-(methylsulfonyl)phenyl)-1H-benzo[d]imidazole] | > 50000 | > 50000 | 940 | 943 |
| Cn1c(-c2ccc(S(C)(=O)=O)cc2)nc2cc(C3CCN(C4CCN(C5COC5)CC4)CC3)c(F)cc21 [Example 244, 6-fluoro-1-methyl-2-(4-(methylsulfonyl)phenyl)-5-(1′-(oxetan-3-yl)-[1,4′-bipiperidin]-4-yl)-1H-benzo[d]imidazole] | > 50000 | > 50000 | 3600 | 3570 |

Stronger by IC50 (human TLR7), values ahead:

| IC50 (human TLR7) [nM] | IC50 (human TLR8) [nM] | IC50 (human TLR9) [nM] | IC50 (human TLR9; [1]) [nM] | SMILES |
| --- | --- | --- | --- | --- |
| 32400 | > 50000 | 36 | 36 | Cn1c(-c2ccc(S(C)(=O)=O)cc2)nc2cc(F)c(C3CCN(C4CC5CCC(C4)N5CC4CC4)CC3)cc21 (centres unmarked) [Example 230, 6-(1-(8-(cyclopropylmethyl)-8-azabicyclo[3.2.1]octan-3-yl)piperidin-4-yl)-5-fluoro-1-methyl-2-(4-(methylsulfonyl)phenyl)-1H-benzo[d]imidazole] |
| 22400 | > 50000 | 45 | 45 | Cn1c(-c2ccc(S(C)(=O)=O)cc2)nc2cc(F)c(C3CCN(C4CC5CCC(C4)N5C4CCC4)CC3)cc21 (centres unmarked) [Example 232, 6-(1-(8-cyclobutyl-8-azabicyclo[3.2.1]octan-3-yl)piperidin-4-yl)-5-fluoro-1-methyl-2-(4-(methylsulfonyl)phenyl)-1H-benzo[d]imidazole] |
| 29000 | > 50000 | 58 | 58 | Cn1c(-c2ccc(S(C)(=O)=O)cc2)nc2cc(F)c(C3CCN(C4CC5CCC(C4)N5C4CCC4)CC3)cc21 (centres unmarked) [Example 233, 6-(1-(8-cyclobutyl-8-azabicyclo[3.2.1]octan-3-yl)piperidin-4-yl)-5-fluoro-1-methyl-2-(4-(methylsulfonyl)phenyl)-1H-benzo[d]imidazole] |
| 6600 | > 50000 | 120 | 121 | CC(C)CN1CCC(N2CCC(c3cc4nc(-c5ccc(S(C)(=O)=O)cc5)n(C)c4cc3F)CC2)CC1 [Example 240, 6-fluoro-5-(1′-isobutyl-[1,4′-bipiperidin]-4-yl)-1-methyl-2-(4-(methylsulfonyl)phenyl)-1H-benzo[d]imidazole] |
| 14200 | > 50000 | 160 | 158 | Cn1c(-c2ccc(S(C)(=O)=O)cc2)nc2cc(C3CCN(C4CCN(CC5CC5)CC4)CC3)c(F)cc21 [Example 242, 5-(1′-(cyclopropylmethyl)-[1,4′-bipiperidin]-4-yl)-6-fluoro-1-methyl-2-(4-(methylsulfonyl)phenyl)-1H-benzo[d]imidazole] |
